{"source": "patent US8709738B2", "about": "“Methods for predicting cardiac toxicity” (Quintiles Transnational Corporation, priority 2006, dated 2014)", "key": {"[1]": {"system": "Au565 cells", "experiment": "Acylcarnitines (byproducts of mitochondrial fatty acid oxidation) by MS/MS in treated Au565 cells", "type": "cell-based", "details": "Au565 cell pellet, GW2974 25 μM, 2 days", "source_text": "(§1) In addition, tyrosine kinase inhibitors can be used to reduce fat in cells, particularly cells that are otherwise normal or that lack protein tyrosine kinase activity mediated disease. To this end at least a portion of a mammal or tissue can be treated with a kinase inhibitor such that the amount of lipid in the cells is reduced. Any suitable kinase inhibitor can be used. Methods for determining suitable inhibitors are well known. For example, samples of adipocytes can be grown in the presence and absence of a kinase inhibitor and stained with Oil red 0 by known methods to determine whether the kinase inhibitor causes a reduction in stored fat. Those kinase inhibitors that cause an observable reduction in fat storage are suitable for the present invention. Exemplary kinase inhibitors that are suitable for the invention include erbB inhibitors, especially including GW2974, GW572016, and the like. […] Au565 cells were grown under normal conditions known in the art and treated for 2 days with GW2974 (25 μM). The cells were collected, washed and sonicated in water (2,000,000 cells in 200 μL of water). The cells were spun down and were tested for acylcamitines (byproducts of mitochondrial fatty acid oxidation) by MS/MS for intraceullar metabolites."}, "[2]": {"system": "Au565 cells", "experiment": "Microarray mRNA expression profile of Au565 cells treated with GW2974", "type": "cell-based, human", "details": "GW2974 25 μM vs untreated", "description": "Au565 cells were grown under normal conditions and were untreated or treated with GW2974 (25 μM). Cells were pelleted, snap frozen in liquid nitrogen and subjected to microarray analysis. RNA was isolated using the Agilent Total RNA Isolation Kit. Cy3 and Cy5 labeled cRNA was prepared using the Agilent Low RNA Input Fluorescent Linear Amplification Kit. Labeled cRNAs were hybridized to a G4110A Human 1A(V2) microarray consisting of 60-mer oligonucleotides representing over 18K well-characterized, full length, human genes."}, "[3]": {"system": "Au565 cells", "experiment": "Oil red lipid staining of Au565 cells", "type": "cell-based", "details": "FIG. 2 and FIG. 3"}, "[4]": {"system": "primary human cardiac myocytes", "experiment": "Lipid staining of cardiomyocytes", "type": "cell-based", "details": "FIG. 4", "source_text": "FIG. 4 are photographs of primary human cardiac myocytes grown under various conditions and stained for lipids.\nFIG. 5 is a bar graph illustrating the percentage of human cardiomyocytes testing positive for lipids under various conditions."}, "[5]": {"system": "normal fat cells grown in culture", "experiment": "Lipid stored in cultured fat cells (Oil red O staining)", "type": "cell-based", "details": "normal fat cells (adipocytes) grown in culture, also cardiac cells", "source_text": "Such studies can be conducted using Oil red 0 staining for lipids.\nas §1, with “To” for “In addition, tyrosine kinase inhibitors can be used to reduce fat in cells, particularly cells that are otherwise normal or that lack protein tyrosine kinase activity mediated disease. To”, “Those kinase inhibitors that cause an observable reduction in fat storage are suitable for the present invention.” left out"}, "[6]": {"system": "MDA-MB-468 breast cancer cells", "experiment": "Intracellular calcium detected by Fluoro-4", "type": "cell-based", "details": "MDA-MB-468 cells, Fluoro-4, FIG. 6", "source_text": "FIG. 6 are photographs of MDA-MB-468 cells treated by GW-2974 and intracellular Ca detected by Fluoro-4.\n(§2) This can be seen in MDA-MB-468 breast cancer cells where calcium is detected by fluorescently by Fluoro-4. This redistribution of calcium results in the activation and phosphorylation of AMPK. Activated AMPK represses translation by phosphorylation of the translation factor eEF-2 (FIG. 7), which inactivates eEF-2 and represses protein synthesis, a known effect of TKIs."}, "[7]": {"system": "Au565 cells", "experiment": "Western blot for p-eEF-2", "type": "cell-based", "details": "FIG. 7A", "source_text": "FIG. 7A a photograph of a Western Blot showing the affect of certain tyrosine kinase inhibitors on expression p-eEF2 and p-AMPKα.\nas §2"}, "[8]": {"system": "Au565 cells", "experiment": "p-eEF-2 expression by IHC", "type": "cell-based", "details": "FIG. 7B", "source_text": "FIG. 7B is a photograph of stained cells showing the expression of p-eEF2 in Au565 cells in the presence of various compounds."}, "[9]": {"system": "cardiomyocytes cells", "experiment": "ERRα and MCAD in cardiomyocytes treated with kinase inhibitors", "type": "cell-based", "details": "FIG. 8", "source_text": "FIG. 8 is a photograph of ERRα and MCAD in cardiomyocytes cells with and without treatment by various kinase inhibitors.\nERRα plays a role in lipid metabolism in cardiac cells, and MCAD is an enzyme that breaks down lipids and fatty acids. Mutations in MCAD is a common genetic disorder, especially in those of northern European descent."}, "[10]": {"system": "HER2-expressing human cardiomyocytes", "experiment": "AMPK activation, ATP production and TNFα-induced apoptosis in cardiomyocytes", "type": "cell-based"}}, "note": "Where “and” joins values, the source holds several entries; their conditions need not be identical. Identical values can stand only once. Entries after “also recorded” stand apart in the source; their conditions may differ."}
{"molecule": "CN(C)c1cc2c(Nc3ccc4c(cnn4Cc4ccccc4)c3)ncnc2cn1", "note": "[GW2974]", "values": [{"measurement": "Acylcarnitines C2", "setting": "[1]", "value": "258.88 pmoles of protein"}, {"measurement": "Acylcarnitines C16", "setting": "[1]", "value": "0.83 pmoles of protein"}, {"measurement": "Acylcarnitines C18:1", "setting": "[1]", "value": "4.1 pmoles of protein"}, {"measurement": "ACAT2: GW2974 change compared to control", "setting": "[2]", "value": "−5.3"}, {"measurement": "AKAP5: GW2974 change compared to control", "setting": "[2]", "value": "−7.3", "unit": "x"}, {"measurement": "AVIL: GW2974 change compared to control", "setting": "[2]", "value": 4.2, "unit": "x"}, {"measurement": "BBOX1: GW2974 change compared to control", "setting": "[2]", "value": 5.1}, {"measurement": "CAMK4: GW2974 change compared to control", "setting": "[2]", "value": 4.5, "unit": "x"}, {"measurement": "CASK: GW2974 change compared to control", "setting": "[2]", "value": "−4.2", "unit": "x"}, {"measurement": "CCR2: GW2974 change compared to control", "setting": "[2]", "value": "−5.0", "unit": "x"}, {"measurement": "CD38: GW2974 change compared to control", "setting": "[2]", "value": "−4.4", "unit": "x"}, {"measurement": "CLCA1: GW2974 change compared to control", "setting": "[2]", "value": "−6.7", "unit": "x"}, {"measurement": "CLSP: GW2974 change compared to control", "setting": "[2]", "value": "−4.0", "unit": "x"}, {"measurement": "CYP2C8: GW2974 change compared to control", "setting": "[2]", "value": 4.5, "unit": "x"}, {"measurement": "ELOVL2: GW2974 change compared to control", "setting": "[2]", "value": "−4.4", "unit": "x"}, {"measurement": "FABP1: GW2974 change compared to control", "setting": "[2]", "value": "−7.2"}, {"measurement": "FASN: GW2974 change compared to control", "setting": "[2]", "value": "−4.3", "unit": "x"}, {"measurement": "FKSG14: GW2974 change compared to control", "setting": "[2]", "value": "−4.6", "unit": "x"}, {"measurement": "FLJ12476: GW2974 change compared to control", "setting": "[2]", "value": 5.0, "unit": "x"}, {"measurement": "FREQ: GW2974 change compared to control", "setting": "[2]", "value": "−5.3", "unit": "x"}, {"measurement": "GLS: GW2974 change compared to control", "setting": "[2]", "value": 5.1}, {"measurement": "GNB5: GW2974 change compared to control", "setting": "[2]", "value": "−4.1", "unit": "x"}, {"measurement": "GSTT2: GW2974 change compared to control", "setting": "[2]", "value": "−5.3"}, {"measurement": "HPCAL1: GW2974 change compared to control", "setting": "[2]", "value": "−4.5", "unit": "x"}, {"measurement": "HSPA8: GW2974 change compared to control", "setting": "[2]", "value": "−4.2", "unit": "x"}, {"measurement": "LDLR: GW2974 change compared to control", "setting": "[2]", "value": "−5.2", "unit": "x"}, {"measurement": "NRXN3: GW2974 change compared to control", "setting": "[2]", "value": "4.58x and 4.6x"}, {"measurement": "PFKL: GW2974 change compared to control", "setting": "[2]", "value": "−4.7"}, {"measurement": "PRKG1: GW2974 change compared to control", "setting": "[2]", "value": "6.5x and 6.51x"}, {"measurement": "SAT: GW2974 change compared to control", "setting": "[2]", "value": 4.4}, {"measurement": "SCN1A: GW2974 change compared to control", "setting": "[2]", "value": 4.1, "unit": "x"}, {"measurement": "SOAT1: GW2974 change compared to control", "setting": "[2]", "value": "−4.0", "unit": "x"}, {"measurement": "STK33: GW2974 change compared to control", "setting": "[2]", "value": "−5.3", "unit": "x"}, {"measurement": "TGFβ1: GW2974 change compared to control", "setting": "[2]", "value": 5.31, "unit": "x"}, {"measurement": "S100A9: GW2974 change compared to control", "setting": "[2]; Table IV A", "value": "−5.5", "unit": "x"}, {"measurement": "S100A9: GW2974 change compared to control", "setting": "[2]; Table IV C", "value": "−5.4"}, {"measurement": "lipids in Au565 cells (oil red staining)", "setting": "[3]", "value": "reduced"}, {"measurement": "lipids in cardiomyocyte cells compared with untreated cells", "setting": "[4]", "value": "not decrease"}, {"measurement": "lipid stored within fat cells", "setting": "[5]", "value": "rapidly disappears; also recorded: lose lipid"}, {"measurement": "intracellular calcium distribution", "setting": "[6]", "value": "redistribution of intracellular calcium"}, {"measurement": "p-eEF-2 by western blot", "setting": "[7]", "value": "dramatically increased"}, {"measurement": "p-eEF-2 expression by IHC", "setting": "[8]", "value": "do"}, {"measurement": "MCAD expression", "setting": "[9]", "value": "completely absent"}, {"measurement": "AMPK activation", "setting": "[10]", "value": "can activate AMPK"}, {"measurement": "ATP production", "setting": "[10]", "value": "increases ATP production"}, {"measurement": "cardiomyocyte apoptosis / cell death induced by TNFα", "setting": "[10]; TNFα", "value": "protecting against apoptosis induced by TNFα"}]}
{"molecule": "COc1cc2ncnc(Nc3ccc(F)c(Cl)c3)c2cc1OCCCN1CCOCC1", "note": "[Iressa]", "values": [{"measurement": "p-eEF-2 expression by IHC", "setting": "[8]", "value": "do"}]}
{"molecule": "CS(=O)(=O)CCNCc1ccc(-c2ccc3ncnc(Nc4ccc(OCc5cccc(F)c5)c(Cl)c4)c3c2)o1", "note": "[lapatinib]", "values": [{"measurement": "lipid stored within fat cells", "setting": "[5]", "value": "loss of fat"}, {"measurement": "lipid stored within fat cells", "setting": "[5]; listed as GW572016", "value": "rapidly disappears"}]}
